According to ChEMBL document CHEMBL5726965, “Heterocyclic compounds as LSD1 inhibitors” (2018):

Biological target: Lysine-specific histone demethylase 1A (Homo sapiens, UniProt O60341)
Experiment: Biochemical Assay: LANCE LSD1/KDM1A demethylase assay-10 μL of 1 nM LSD-1 enzyme (ENZO BML-SE544-0050) in the assay buffer (50 mM Tris, pH 7.5, 0.01% Tween-20, 25 mM NaCl, 5 mM DTT) were preincubated for 1 hour at 25° C. with 0.8 μL compound/DMSO dotted in black 384 well polystyrene plates. Reactions were started by addition of 10 μL of assay buffer containing 0.4 μM Biotin-labeled Histone H3 peptide substrate: ART-K(Mel)-QTARKSTGGKAPRKQLA-GGK(Biotin) SEQ ID NO: 1 (AnaSpec 64355) and incubated for 1 hour at 25° C. Reactions were stopped by addition of 10 μL 1×LANCE Detection Buffer (PerkinElmer CR97-100) supplemented with 1.5 nM Eu-anti-unmodified H3K4 Antibody (PerkinElmer TRF0404), and 225 nM LANCE Ultra Streptavidin (PerkinElmer TRF102) along with 0.9 mM Tranylcypromine-HCl (Millipore 616431). After stopping the reactions plates were incubated for 30 minutes and read on a PHERAstar FS plate reader (BMG Labtech).

SMILES | IC50
COC(=O)N(C)c1ccc(-c2c(-c3ccc(C#N)cc3)nc(N3CCC(N(C)C)CC3)n3ccnc23)cc1F | < 0.05 µM
COC(=O)N(C)c1cc(-c2c(-c3ccc(C#N)cc3)nc(OC[C@@H]3CCCN(C)C3)n3ccnc23)ccc1C | < 0.05 µM
COC(=O)N(C)c1ccc(-c2c(-c3ccc(C#N)cc3)nc(N3CCC(N(C)C)CC3)n3ccnc23)cc1 | < 0.05 µM
